Tested on: C3H mice
Assay: Hair-growth test on shaved back of C3H mice
Assay type: in vivo
Conditions: 0.2 mL per mouse twice a day for two weeks, measured on sixteenth day
Method: The hair-growth promoting effect of the hair tonic of the invention was evaluated according to the following hair-growth test. Commercially available acteoside (manufactured by ChromaDex Corp.) or the crude acteoside according to example 1 was dissolved in a 55% wt aqueous ethanol solution. Comparative example 1 was carried out using this aqueous ethanol solution as the reference.
C3H mice (males of 8-week age, average weight 35 g, a group of 10 mice) were used as test animals. Their back (2 cm×4 cm) was shaved to prepare a test area and from the following day onwards, each test sample (0.2 mL per mouse) was applied twice a day(morning and evening) for two weeks. On the sixteenth day, a picture of the test area was taken with a video camera, and hair-growth was measured with an image analyzer. The hair-growth promoting effect was evaluated as hair-growth rate (%) calculated according to the equation reported below.
[Hair-growth rate (%)]=[area of the hair-growth portion]/[test area]×100

Acteoside [Example 2]
Hair growth rate (sample concentration 0.1 % by weight in 55% wt aqueous ethanol): 61.05%
Hair growth rate (sample concentration 0.2 % by weight in 55% wt aqueous ethanol): 65.02%

From patent US20090324760A1, “Hair tonic” (priority 2005, published 2009)
